Each structure is given as a SMILES string. Like-named read-outs stand apart in the source and are kept apart here.

A short description of series [1]: Static (DC) electric field induced nucleation of aged supersaturated aqueous solutions; polymorph by x-ray powder diffraction. The conditions noted are these: for timescale on which macroscopic crystals form: supersaturated aqueous solution subjected to static electric field; for percent of the exposed solutions that nucleated within the 10-minute exposure time: 6×10^5 V/m DC field, γ glycine. It is filed as physicochemical. The method, then:
Great care was taken to exclude dust from samples. Supersaturated solutions were generated by heating the tubes to 62-64° C. and holding them at that temperature in an ultrasonicator overnight.
A chamber was constructed consisting of two brass electrodes separated by a 5 mm insulating gap, with a hole drilled down through the center, parallel to the gap-electrode interface, with a diameter large enough to accommodate the test tube, to create a high voltage chamber. Test tubes containing the aged solutions were placed in the high voltage chamber.
A DC voltage was applied across the electrodes, large enough to produce electric fields in the range of 400,000 to 800,000 V/m. Tests tubes containing the aged solutions were placed in the high-voltage chamber. […] If crystals formed in the test tubes, the crystals were removed from the solution and dried. The structure of these crystals was analyzed by grinding up the crystal into a powder and obtaining an x-ray powder diffraction pattern.
(§1) The supersaturated solutions were in the concentration range of 5.5 to 6.0 molal. […] These solutions had supersaturations (SS) ranging from 1.85 to 2.0; SS=c/csat, where csat is the saturation concentration.
Solutions were aged for 2 to 5 weeks and exposed to a 6×10^5 V/m DC field for 10 minutes. Semi-cylindrical electrodes were constructed from a 5 cm×5 cm×5.5 cm block of brass, with the center drilled out so that the sample tubes would fit snugly, and then split in half and material removed to create a 5 mm gap, as shown in FIG. 1. […] All sharp edges were rounded in the actual electrodes. The electrodes are insulated and held firmly in position by Delrin plates, screwed together to make a covered box, with 5 mm thick spacers to hold the cylindrical electrodes at the proper spacing. There are two long narrow gaps in the insulation, matching the electrode gap 20, so that most of the length of the sample tube is visible from either side, and there is a small hole in the bottom insulating plate, with a mount for an optical fiber. A Glassman EH regulated power supply provided 0-15 kV DC.
A low power monitoring continuous-wave laser beam at a wavelength of 532 nm, defocused in one direction with a cylindrical lens to generate a pencil-shaped beam, was directed through the electrode gap 20 and illuminated the length of the sample tube. The transmitted light was imaged on white paper. Light scattered perpendicular to the beam was collected with an optical fiber attached at the bottom of the cell and monitored with a power meter.
(§2) Crystals formed in the test tubes were removed from the solution and dried. The structure of these crystals was analyzed by grinding up the crystal into a powder and obtaining an x-ray powder diffraction pattern.

The procedure of series [2]: as §1, §2
Towler, C. S. et al., Journal of the American Chemical Society, Vol. 126, pp. 13347-13353 (2004).

The conditions of series [3]: supersaturated aqueous solutions. From the text:
Such species, when subjected to a DC electric field, will tend to migrate toward the electrode with the opposite charge, effectively increasing the supersaturation near the electrode, which in itself can be responsible for inducing nucleation.

The conditions of series [4]: room temperature, approximately 20° C., water; cited from earlier work.
The conditions of series [5]: average charge on a glycine molecule is zero; cited from earlier work.

As for `C[C@H](N)C(=O)O` [L-alanine], the “timescale on which macroscopic crystals form” value in series [1] is recorded as “minutes”.

Turning to `NCC(=O)O` [glycine], the “percent of the exposed solutions that nucleated within the 10-minute exposure time” value in series [1] (1.85 SS, after 16 days aging) amounted to 24%; in series [1] (1.9-2.0 SS, after 14 days aging) it was 33%; in series [1] (1.9-2.0 SS, after 36 days aging), 40%. The “% samples mixed α + γ” value in series [1] (SS 1.85, DC field) amounted to 0%; in series [1] (SS 1.9–2.0, DC field) it was 0%; in series [2] (SS 1.85, Spontaneous), 0%; in series [2] (SS 1.9–2.0, Spontaneous), 27%. The “% samples pure α” value was determined as 50% in series [1] (SS 1.85, DC field); 0% in series [1] (SS 1.9–2.0, DC field); 86% in series [2] (SS 1.85, Spontaneous); 13% in series [2] (SS 1.9–2.0, Spontaneous). Further, the “% samples pure γ” value came to 50% in series [1] (SS 1.85, DC field); 100% in series [1] (SS 1.9–2.0, DC field); 14% in series [2] (SS 1.85, Spontaneous); 60% in series [2] (SS 1.9–2.0, Spontaneous). In addition, in series [1] (electric field strength 600,000 V/m), the “time until crystallization observed” value is 30 to 90 min. Further, the “induction of nucleation by field exposure” value in series [1] (field of 400,000 V/m, aged solutions) is on record as “not sufficient to induce nucleation”. In addition, in series [1], the “timescale on which macroscopic crystals form” value is given as “hours”. The “Spontaneous nucleation rate for a ten-minute time window” value in series [2] (1.85 SS, no field) is recorded as 0.02%. The “pH of aqueous glycine solutions exposed to DC fields” value in series [3] is on record as 6.4-6.5. In addition, the saturation concentration csat in series [4] was 3.0 molal. The “isoelectric point (pH)” value in series [5] was 6.0.

The record behind these values is patent publication US7879115B2, “Method for using a static electric field to induce crystallization and to control crystal form” (Intellectual Ventures Holding 19, LLC, priority 2004, dated 2011).
